Assay results taken from patent US8252807B2, “Methods of inhibiting the interaction between S100 and the receptor for advanced glycation end-products” (Board of Regents, The University of Texas System, priority 2007, dated 2012).

How the values were obtained:
Panc-1 cells [1] = test: Panc-1 cell growth (MTS); assay type: cell-based
Experimental: Panc-1 pancreatic adenocarcinoma cells (1.0×10^3 cells/well) were cultured in the presence or absence of S100P (100 nM) and with or without cromolyn (100 μM), and cell proliferation was analyzed at 24, 48, and 72 hours. Means and 95% confidence intervals of three independent experiments performed in triplicate are shown. *, P=0.001, S100P alone versus S100P+cromolyn.
Panc-1 cells were plated at 1.0×10^3 cells/well and treated with platelet-derived growth factor (10 ng/mL) with or without cromolyn (100 μM), and cell proliferation was analyzed after 48 hours. Means and 95% confidence intervals of three independent experiments performed in triplicate are shown. *, P=0.004 PDGF and P=0.022 cromolyn+PDGF versus control.
Growth of Panc-1 and BxPC3 pancreatic adenocarcinoma cells was analyzed using MTS reagent (Promega, Madison, Wis.) according to the manufacturer's directions. Purified S100P (100 nM final concentration) with or without cromolyn (100 μM final concentration) was added to Panc-1 cells. Only cromolyn (0-100 μM) was added to BxPC-3 cells, which express endogenous S100P. For both cell models, 1.0×10^3 cells/well were plated in 96-well culture dishes. Cells were treated with S100P, PDGF, or cromolyn, or a combination, followed immediately by treatment with either S100P or PDGF. MTS (20 μL per well) was added to cells at various times, and the mixture was incubated for 1 hour at 37° C. Samples were then read at 490 nm (as O.D. units) on a uQuant-Microplate Spectrophotometer (Bio-Tek Services Inc., Richmond, Va.). The assay was performed three times in triplicate.

S100P binding with RAGE = molecular target: T1, S100P binding with RAGE (Homo sapiens, UniProt P25815); test: S100P binding with RAGE ELISA (sRAGE coated plate)
T1 construct: full-length human S100P cDNA (NM_005980) was cloned into the pTrcHis2 vector; His tag
T1 sequence (P25815 1-95): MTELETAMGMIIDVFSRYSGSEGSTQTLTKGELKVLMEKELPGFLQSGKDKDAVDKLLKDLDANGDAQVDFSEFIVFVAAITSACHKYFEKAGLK
Experimental: After removing un-bound S100P by washing with detergent, the bound S100P and RAGE complex was quantified by adding HRP labeled antibody against S100P. *, P=0.04 C5 μM versus cromolyn 5 μM. Two-tailed two-sample (unpaired) Student's t-tests were used to determine P values.

[2] = tested on: NFκB activity in MPanc-96 cells; test: S100P stimulated NFκB luciferase reporter, MPanc-96; assay type: cell-based, human
Experimental: MPanc-96 pancreatic cancer cell lines stably expressing an NFκB luciferase reporter were examined for the effects of S100P, cromolyn and C5. Cells were plated at 5.0×10^3 cells/well, treated for 5 hours with 100 nM of S100P, with or without cromolyn and C5 (1 μM), and activity of a luciferase gene driven by the NFkB promoter was analyzed. P=0.05 C5 versus cromolyn. Two-tailed two-sample (unpaired) Student's t-tests were used to determine P values.

BxPC-3 cells = test: BxPC-3 cell viability, 72 hours; assay type: cell-based
Experimental: BxPC-3 cells were plated at 1.0×10^3 cells/well and treated with 0 μM, 1 μM, 10 μM, and 100 μM of cromolyn or C5 alone or in combination with gemcitabine 1 μM and cell viability was analyzed after 72 hours. Two-tailed two-sample (unpaired) Student's t-tests were used to determine P values. […] BxPC-3 cells were plated at 1.0×10^3 cells/well and treated with either 100 μM of cromolyn or 1 μM C5 alone or in combination with gemcitabine (1 μM) and cell viability was analyzed after 72 hours.

MPanc-96 cells = test: MPanc-96 cell apoptosis by flow cytometry, 72 hours; assay type: cell-based, human; conditions: 100 and 1000 nM, with or without gemcitabine 10 μM
Experimental: FIG. 11 compares the effects of cromolyn and C5 alone and in combination with gemcitabine on MPanc-96 cell apoptosis. MPanc-96 cells were treated with cromolyn or C5 (100 and 1000 nM) with (+) or without (−) gemcitabine (10 μM). Apoptosis was analyzed after 72 hours by flow cytometry.

S100B with RAGE = S100B with RAGE (Homo sapiens, UniProt P04271); test: S100B binding with RAGE ELISA (sRAGE coated plate)
Sequence of S100B with RAGE (P04271 whole entry, species assumed): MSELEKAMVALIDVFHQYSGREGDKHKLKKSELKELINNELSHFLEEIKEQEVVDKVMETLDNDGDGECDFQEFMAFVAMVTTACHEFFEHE
Description: After removing un-bound S100B by washing with detergent, bound S100B and RAGE complex was quantified by adding HRP labeled antibody against S100B.

Panc-1 cells [3] = test: Matrigel invasion assay, Panc-1; assay type: cell-based; conditions: S100P 100 nM alone, 24 hours
Experimental: FIGS. 2A-2D show the effect of cromolyn on pancreatic cancer cell invasion. Panc-1 and BxPC-3 cells were plated in Bio-coat matrigel and control chambers and cultured in serum-free culture media. After 24 hours non-invaded cells in the upper chamber were removed, and cells that invaded onto the lower surface of the membrane were counted from five adjacent fields. […] Data are expressed as the percent invasion through the matrigel matrix and membrane relative to migration through the control membrane. Means and 95% confidence intervals from three independent experiments performed in triplicate are shown. Two-tailed two-sample (unpaired) Student's t-tests were used to determine P values.
Panc-1 and BxPC-3 cells were seeded in BIOCOAT matrigel invasion chambers and in control chambers without matrigel (Becton-Dickinson, Bedford, Mass.) according to the manufacturer's protocol. Panc-1 cells were seeded with S100P (100 nM) with or without cromolyn (100 μM), and BxPC-3 cells were seeded with or without cromolyn (1-100 μM). Briefly, 2.0×10^5 cells in 300 μL top solution (serum-free media) were added to each chamber and allowed to invade matrigel for 24 hours at 37° C. in a 5% CO2 atmosphere. The non-invading cells on the upper surface of membrane were removed from the chambers with a cotton swab, and the invading cells on the lower surface of the membrane were fixed and stained using a Diff-Quick stain kit (Becton Dickinson, Bedford, Mass.). After two washes with water, the chambers were allowed to air dry. The numbers of invading cells in five adjacent microscope fields per membrane were counted at 20× magnification to obtain the average number of cells per field. Data are expressed as the percent invasion through the matrigel matrix and membrane relative to the migration through the control membrane. The assays were performed three times.

[4] = tested on: NFκB promoter activity in Panc-1 cells; test: Luciferase assay for NFκB activity, Panc-1; assay type: cell-based; conditions: for NFκB promoter activity in Panc-1 cells, mean: 5 hours, 0 nM mean=3358
Experimental: FIGS. 3A, 3B, and 3C show the effect of cromolyn on S100P stimulated NFκB promoter activity in pancreatic cancer cells in vitro and in vivo. Panc-1 and BxPC-3 pancreatic cancer cell lines stably expressing an NFκB luciferase reporter were examined for the effects of S100P and cromolyn. […] Means and 95% confidence intervals are shown for three independent experiments performed in triplicate. *, P=0.022, †, P<0.001, and ‡, P<0.001 versus control; #, P=0.005 versus 100 nM S100P alone. […] Means and 95% confidence intervals are shown for three independent experiments performed in triplicate. *, P=0.003, †, P<0.001 versus control. […] After 1 week, tumor growth was assessed and NFκB activity was analyzed using an IVIS system (Xenogen Corp., Alameda, Calif.) after injecting mice with D-luciferin (150 mg per kg body weight) (0 time point). The mice were treated with cromolyn (5 mg per kg body weight by intraperitoneal injection), and NFκB luciferase activity was analyzed again at 24 and 48 hours. *, P=0.005 versus control. Means and 95% confidence intervals are shown for two independent experiments (n=4 mice per group). Two-tailed two-sample (unpaired for in vitro and paired for in vivo studies) Student's t-tests were used to determine P values.
To study pancreatic cancer cell NFκB activity, a lentivirus NFκB luciferase reporter gene construct was developed. The NFκB luciferase reporter gene was excised and isolated from the pNF-κB-Luc Vector (Clonetec, Mountain View, Calif.) and cloned into the lentiviral vector FG9 (Gift from Dr. Xiao-Feng Qin, Dept. of Immunology, M.D. Anderson Cancer Center replacing the CMV/LTR and UBiC promoters, to form Lenti-NFκB-Luc. Lentiviral NFκB vector were co-transfected with packaging constructs pRSVREV, pMDLg/pRRE, and the VSV-G expression plasmid pHCMVG, and lentivirus was produced in 293T cells by the calcium transfection method, as previously described in Qin, et al., Inhibiting HIV-1 infection in human T cells by lentiviral-mediated delivery of small interfering RNA against CCR5; Proc. Natl. Acad. Sci. U.S.A. 2003 Jan. 7; 100(1):183-8. […] Functional validation of NFκB reporter activity was conducted in vitro using TNF-α (20 ng/mL, Sigma, St. Louis, Mo.) as a positive control.
BxPC-3 and Panc-1 cells stably expressing a Lenti-NFkB-luc reporter construct were treated with S100P, cromolyn, or the combination for 5 hours. D-luciferin (150 μg/mL) was added to the cells, and luciferase activity was measured using an IVIS bioluminescence system (Xenogen Co. Alameda, Calif.). Each experiment was conducted three times in triplicate.

PDGF
Panc-1 cell growth, difference control versus PDGF (Panc-1 cells [1]; PDGF 10 ng/mL, 48 hours): 0.2 MTS units
Panc-1 cell growth, mean (Panc-1 cells [1]; PDGF 10 ng/mL, 48 hours, control mean=0.5): 0.7 MTS units

O=C([O-])c1cc(=O)c2c(OCCCCCOc3cccc4oc(C(=O)[O-])cc(=O)c34)cccc2o1.[Na+].[Na+] [C5, disodium 1,5-bis(2-carboxychromon-5-yloxy) pentane]
concentration achieving the same level of S100P inhibition (S100P binding with RAGE): 100 nM
interaction between S100P with RAGE (S100P binding with RAGE): blocked
potency relative to cromolyn in blocking S100P-RAGE interaction (S100P binding with RAGE): more potent than cromolyn
NFκB activity in pancreatic cancer cells in vitro ([2]; S100P 100 nM, compound 1 μM, 5 hours): inhibit NFκB activity
reduction of S100P induced NFκB activity relative to cromolyn ([2]; same dose (1 μM)): much better than cromolyn
BxPC-3 cell viability (BxPC-3 cells; 1-100 μM, alone or with gemcitabine 1 μM): inhibit BxPC-3 cell viability
inhibition of BxPC-3 cell viability relative to cromolyn (BxPC-3 cells; alone at 10 or 100 μM, with gemcitabine at 1-100 μM): more potent and more efficacious than cromolyn
concentration giving the same level of cell reduction in combination with gemcitabine (BxPC-3 cells; with gemcitabine 1 μM): 1 µM
MPanc-96 cell viability (MPanc-96 cells): inhibit MPanc-96 cell viability
interaction of S100B with RAGE (S100B with RAGE): inhibit the interaction of S100B with RAGE

B1: S100P: purified His-tagged full-length human S100P protein, added exogenously as RAGE ligand (protein, UniProt P25815 1-95, looked up)
chain: T1 sequence (P25815 1-95)
modifications: full-length His tag
notes: purified His-tagged full-length human S100P protein, added exogenously as RAGE ligand
Panc-1 cell proliferation, mean (Panc-1 cells [1]; S100P 100 nM alone): 0.93 MTS units
Panc-1 cells invaded, mean (Panc-1 cells [3]): 58.0%
NFκB promoter activity in Panc-1 cells, difference versus 0 nM ([4]; S100P 1 nM): 3544 photons/sec
NFκB promoter activity in Panc-1 cells, mean ([4]; S100P 1 nM): 6902 photons/sec
NFκB promoter activity in Panc-1 cells, difference versus 0 nM ([4]; S100P 10 nM): 5400 photons/sec
NFκB promoter activity in Panc-1 cells, mean ([4]; S100P 10 nM): 8758 photons/sec
NFκB promoter activity in Panc-1 cells, difference versus 0 nM ([4]; S100P 100 nM): 11100 photons/sec
NFκB promoter activity in Panc-1 cells, mean ([4]; S100P 100 nM): 14460 photons/sec
